In US20240100133A1, “ENZYMATICALLY INACTIVE GRANZYME A AND USES THEREFORE” (Saint Louis University, priority 2022, published 2024):

Tested on: Connaught BCG within primary CD14+ human monocytes
Assay type: cell-based

**Q.** Which “effect of PDIA1 inhibitor on GzmA-mediated mycobacterial inhibition, BCG” value (PACMA-31 200 nM or Rutin 50 μM pretreatment combined with GzmA-WT) does the source give for PACMA-31 [reference compound] here?
**A.** enhanced mycobacterial inhibitory activity

**Q.** And the “intracellular bacterial burden, PDIA1 inhibitor alone” value (PACMA-31 200 nM or Rutin 50 μM, 30 min pretreatment, no GzmA)?
**A.** did not influence the intracellular bacterial burden
